# Test results taken from US12070445B2, “System and assay for monitoring production/release of membrane-lytic toxins in bacteria and compounds for modulating same” (priority 2021, dated 2024).
# Like-named read-outs stand apart in the source and are kept apart here.
# Tests used:
# human apelin receptor = target: T1, human apelin receptor (Homo sapiens, UniProt P35414); conditions: Smith, 2019; cited from earlier work
# T1 sequence (P35414 1-380): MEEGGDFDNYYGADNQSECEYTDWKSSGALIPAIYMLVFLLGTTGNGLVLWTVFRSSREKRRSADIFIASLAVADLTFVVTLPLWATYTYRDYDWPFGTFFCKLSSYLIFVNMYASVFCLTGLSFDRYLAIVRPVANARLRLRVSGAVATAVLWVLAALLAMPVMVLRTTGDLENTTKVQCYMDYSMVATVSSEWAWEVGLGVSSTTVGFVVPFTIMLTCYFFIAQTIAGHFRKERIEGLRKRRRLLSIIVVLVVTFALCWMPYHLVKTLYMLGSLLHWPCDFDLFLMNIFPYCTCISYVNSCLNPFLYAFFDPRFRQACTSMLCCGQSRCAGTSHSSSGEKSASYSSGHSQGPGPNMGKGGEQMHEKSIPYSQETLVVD
# agr = agr YFP transcriptional reporter assay (S. aureus AH1677 with pDB59); type: cell-based; conditions: for IC50: Staphylococcus aureus
# Protocol: Bacterial strains and culture. All bacteria were grown at 37° C. with 200 rpm shaking unless otherwise specified. S. aureus and P. aeruginosa were grown in BHI medium and LB medium, respectively. S. aureus AH1677 (with an agr-YFP reporter plasmid) and P. aeruginosa PAO1-PGSC (with a plasI-LVAgfp reporter plasmid) were used as QS transcriptional reporters and grown with 10 μg/mL chloramphenicol and 300 μg/mL carbenicillin, respectively. All other strains were grown without supplemental antibiotic. S. aureus RN6390b and P. aeruginosa PAO1-PGSC were used as WT strains in vesicle lysis experiments, while S. aureus RN9222 and P. aeruginosa PAO-JG35 were used as QS mutants. RN9222 was grown without antibiotic as it was not used as a reporter strain (i.e., it served only as QS mutant).
# High-throughput screening and follow-up analysis protocols. Test compounds and positive control 1 were delivered in 2.5 nL aliquots of DMSO with an Echo 550 liquid handler (LabCyte Inc.) into black 384-well microtiter plates (Corning). All test compounds were tested at 10 μM; positive control 1 was tested at 250 nM. DMSO was used as a negative control. Overnight cultures (2 mL) of WT S. aureus (RN6390b) were grown at 37° C. with shaking at 200 rpm. These cultures were diluted 1:500 (v/v) in fresh BHI medium, at which point vesicle solutions were added to a final concentration of 1 mM phospholipid (as determined by ^31P NMR analyses). This vesicle-cell mixture was then added to the 384-well microtiter plates with a Multidrop 384 liquid-dispensing robot (Thermo Scientific) for a total volume of 50 μL per well. Plates were incubated statically for ˜24 hr at 37° C., at which point fluorescence (excitation 483, emission 530) and OD600 (absorbance at 600 nm) measurements were made using a CLARIOstarR Plus microtiter plate reader (BMG Labtech) running MARS data analysis software. Scatter plots were generated using the Collaborative Drug Discovery Vault informatics platform. The dose-response experiment using the vesicle lysis assay was performed in a 384-well plate in technical duplicate with compound concentrations of 0.1, 0.25, 0.5, 1, 2.5, 5, 10, and 20 μM. Dose-response curves were generated using variable slope (4 parameter) non-linear regression analysis for compound inhibition using GraphPad Prism software (v. 9). Analysis of the QS modulatory activity of the HTS hits and 6 (savirin) was performed using the S. aureus YFP transcriptional reporter strain. HTS hits were purchased directly from Life Chemicals, Inc. DMSO stock solutions (10 mM) of each compound were prepared and stored at −20° C. Serial dilutions (1:3) were prepared from the stock solutions in DMSO, and 2 μL aliquots of the resulting dilutions were added to the wells of black 96-well microtiter plates (Corning). Overnight cultures of the S. aureus reporter strain (2 mL) were grown at 37° C. with shaking at 200 rpm. Cultures were diluted 1:50 (v/v) into fresh BHI medium, and 198 μL of this diluted culture were added to each well containing compound, for a total volume of 200 μL per well. All plates contained a vehicle control consisting of 2 μL of DMSO and 198 μL of culture and a media control consisting of 200 μL BHI. Plates were incubated for ˜24 hours at 37° C. with shaking at 200 rpm. Fluorescence (excitation 510, emission 544) and OD600 measurements were acquired with a PerkinElmer EnVision microtiter plate reader running Envision Manager software. Background fluorescence from BHI control was subtracted from raw fluorescence reads, OD600 corrected, and finally normalized to vehicle control. Dose-response curves and IC50 values were generated using 3-parameter non-linear regression analysis for compound inhibition using GraphPad Prism software (v. 9). All compounds were tested in technical triplicate with at least 3 biological replicates.
# S. aureus = S. aureus growth (OD600); type: cell-based; conditions: S. aureus, HTS hits
# Protocol: Microtiter plate vesicle lysis assays. Portions of media (2 or 10 mL) were inoculated with individual bacterial colonies and allowed to shake overnight. From these overnight cultures, subcultures were prepared by diluting the cultures 1:50 (v/v) in fresh BHI for S. aureus or 1:100 (v/v) in fresh LB for P. aeruginosa. An aliquot of each subculture (178 μL) was added to 20 μL of vesicle suspension and 2 μL of compound solution (dissolved in DMSO at 100× working concentration) in a clear-bottomed, black 96-well microtiter plate (Corning 3904). For controls, DMSO (vehicle) or Triton X-100 (1% final concentration) was substituted for compound. Plate covers were coated with an aqueous solution of 0.05% Triton X-100 and 20% ethanol (Brewster, 2003) to prevent the accumulation of condensation. Plates were incubated in a Biotek Synergy 2 microplate reader running Gen5 1.05 software at 37° C. with shaking at the high-speed setting. Fluorescence (excitation 500 nm, emission 540 nm) and OD600 (absorbance at 600 nm) measurements were recorded every 15 minutes for 12 hours. All experiments were performed in technical triplicate in a single microtiter plate. Biological triplicates were then obtained over three days. GraphPad Prism software (v. 9) was used to generate curves and calculate standard error.
# High-throughput screening and follow-up analysis protocols. Test compounds and positive control 1 were delivered in 2.5 nL aliquots of DMSO with an Echo 550 liquid handler (LabCyte Inc.) into black 384-well microtiter plates (Corning). All test compounds were tested at 10 μM; positive control 1 was tested at 250 nM. DMSO was used as a negative control. Overnight cultures (2 mL) of WT S. aureus (RN6390b) were grown at 37° C. with shaking at 200 rpm. These cultures were diluted 1:500 (v/v) in fresh BHI medium, at which point vesicle solutions were added to a final concentration of 1 mM phospholipid (as determined by ^31P NMR analyses). This vesicle-cell mixture was then added to the 384-well microtiter plates with a Multidrop 384 liquid-dispensing robot (Thermo Scientific) for a total volume of 50 μL per well. Plates were incubated statically for ˜24 hr at 37° C., at which point fluorescence (excitation 483, emission 530) and OD600 (absorbance at 600 nm) measurements were made using a CLARIOstarR Plus microtiter plate reader (BMG Labtech) running MARS data analysis software. Scatter plots were generated using the Collaborative Drug Discovery Vault informatics platform. […] Fluorescence (excitation 510, emission 544) and OD600 measurements were acquired with a PerkinElmer EnVision microtiter plate reader running Envision Manager software. […]
# [1] = Solubility in DMSO and aqueous solutions
structure (smiles),measurement,setting,value
"Cc1nn2c(C(C)C)cc(C(=O)O)nc2c1-c1ccccc1 [Compound 10, 7-isopropyl-2-methyl-3-phenylpyrazolo[1,5-a]pyrimidine-5-carboxylic acid]",reported activity at human apelin receptor,human apelin receptor,agonists
same,agr inhibition in agr transcriptional reporter assay,agr; S. aureus agr YFP reporter,near maximal agr inhibitors
same,IC50,agr,1220 nM
same,IC50,"agr; 24 h, read-out: IC50 in the agr reporter assay",500 nM
same,inhibition of cellular growth,S. aureus,do not inhibit cellular growth
same,solubility in DMSO and aqueous solutions,[1],readily soluble
